We go through 24 compounds from US12637461B2, “Compounds for the activation of AMPK” (PFIZER INC., priority 2022, dated 2026).

The experiment addresses T1, human AMPK α2β2γ3 (Homo sapiens, UniProt O43741+P54646+Q9UGI9).
T1 construct: expressed in transfected cells; host or cells: HEK293AD cells, MaxCyte bulk electroporation
Kind of experiment: Primary cellular assay: γ3 associated phospho-Thr172 AMPK detection (custom pAMPK Surefire AlphaLISA) in α2β2γ3 bulk transiently transfected HEK293 cells. It is filed as cell-based. To be noted: activation of human AMPK α2β2γ3 (γ3 pThr172 AMPK signal) in transiently transfected HEK293 cells, 20 minutes compound incubation; for Emax: 20 min, read-out: Assay GMean Asy. Max (%); for Emax / Assay GMean Asy. Max (%): geometric mean of the asymptotic max; for EC50: geometric mean EC50, read-out: Assay GMean EC50. A digest of the protocol:
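Transiently co-transfected (α2/β2/γ3 plasmids, electroporation) HEK293AD cells, plated 2 days in low-glucose DMEM+10% FBS, treated 20 min with compounds (11-point half-log dilutions). Lysates read by modified AlphaLISA capturing γ3 with pThr172 antibody detection. % effect relative to 30 μM HPE and DMSO; EC50 and Emax from curve fit.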
Background: Bead proximity is the source of the signal in Alpha formats.

T1 sequence (P54646 whole entry): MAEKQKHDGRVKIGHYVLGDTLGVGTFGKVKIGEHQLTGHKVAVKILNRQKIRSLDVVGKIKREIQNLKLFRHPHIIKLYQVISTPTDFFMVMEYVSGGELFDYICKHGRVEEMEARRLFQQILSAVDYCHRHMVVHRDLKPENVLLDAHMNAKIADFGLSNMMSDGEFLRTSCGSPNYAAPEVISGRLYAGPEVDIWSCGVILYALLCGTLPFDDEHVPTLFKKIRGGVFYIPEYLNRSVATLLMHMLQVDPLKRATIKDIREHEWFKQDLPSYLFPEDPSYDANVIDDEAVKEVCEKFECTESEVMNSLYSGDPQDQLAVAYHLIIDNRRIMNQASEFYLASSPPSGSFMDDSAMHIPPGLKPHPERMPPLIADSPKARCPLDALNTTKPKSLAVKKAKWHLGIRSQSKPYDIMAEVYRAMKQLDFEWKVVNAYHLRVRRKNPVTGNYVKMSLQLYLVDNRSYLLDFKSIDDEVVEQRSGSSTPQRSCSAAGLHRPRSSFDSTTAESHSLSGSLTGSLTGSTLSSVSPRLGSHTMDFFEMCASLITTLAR
T1 sequence (O43741 whole entry): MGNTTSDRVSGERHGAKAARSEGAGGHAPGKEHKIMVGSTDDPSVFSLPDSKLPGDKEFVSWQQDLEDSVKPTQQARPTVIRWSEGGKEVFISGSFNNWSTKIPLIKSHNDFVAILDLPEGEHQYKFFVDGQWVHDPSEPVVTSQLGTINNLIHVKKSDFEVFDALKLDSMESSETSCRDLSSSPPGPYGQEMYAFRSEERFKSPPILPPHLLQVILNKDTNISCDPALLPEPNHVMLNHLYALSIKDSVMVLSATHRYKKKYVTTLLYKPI
T1 sequence (Q9UGI9 whole entry): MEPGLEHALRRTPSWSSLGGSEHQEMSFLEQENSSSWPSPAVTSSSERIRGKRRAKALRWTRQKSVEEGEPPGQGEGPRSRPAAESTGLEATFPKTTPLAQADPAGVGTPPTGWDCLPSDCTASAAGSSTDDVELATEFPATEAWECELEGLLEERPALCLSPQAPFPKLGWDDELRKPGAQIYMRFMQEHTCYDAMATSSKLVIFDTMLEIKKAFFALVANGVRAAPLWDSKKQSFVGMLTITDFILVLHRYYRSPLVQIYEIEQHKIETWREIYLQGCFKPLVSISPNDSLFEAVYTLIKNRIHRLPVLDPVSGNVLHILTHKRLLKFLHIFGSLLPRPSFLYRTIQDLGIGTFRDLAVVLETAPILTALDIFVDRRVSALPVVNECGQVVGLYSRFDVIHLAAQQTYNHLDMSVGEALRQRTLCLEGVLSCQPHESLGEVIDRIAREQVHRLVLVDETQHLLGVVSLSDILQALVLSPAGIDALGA

A word on the EC50: it is the concentration at which the effect is half-maximal. As to `Cn1cc(F)c(N2CC(C)(c3cccc(Cl)c3F)c3c(ccc(NC4CN(C5CCCNC5=O)C4)c3F)C2=O)n1` (stereo not drawn) [Example 36, 4-(3-Chloro-2-fluorophenyl)-5-fluoro-2-(4-fluoro-1-methyl-1H-pyrazol-3-yl)-4-methyl-6-{[1-(2-oxopiperidin-3-γ1)azetidin-3-yl]amino}-3,4-dihydroisoquinolin-1(2H)-one], the Emax is 96.5% and the EC50 was found to be 149 nM.
Consider `CN1CCCC(N2CC(Nc3ncc4c(c3F)[C@@](C)(c3cccc(Cl)c3F)CN(c3nn(C)cc3F)C4=O)C2)C1=O` (single isomer, unassigned) [compound 72], for which the EC50 was determined as 42.3 nM and the “Assay GMean Asy. Max (%)” value was 121%.
As for `C[C@]1(c2cccc(Cl)c2F)CN(c2ccc([C@@H]3COCCN3)cn2)C(=O)c2cnc(NC3CN(C(=O)c4cccnn4)C3)c(F)c21` (single isomer, unassigned) [Example 17], the Emax turned out to be 120% and the EC50 was found to be 144 nM.
For `CNC(=O)N1CC(Nc2ncc3c(c2F)[C@@](C)(c2cccc(Cl)c2F)CN(c2ncccc2F)C3=O)C1` [Example 20, 3-{[(5R)-5-(3-Chloro-2-fluorophenyl)-4-fluoro-7-(3-fluoropyridin-2-yl)-5-methyl-8-oxo-5,6,7,8-tetrahydro-2,7-naphthyridin-3-yl]amino}-N-methylazetidine-1-carboxamide], in that order: 43.1% and 23.9 nM.
For the compound `Cn1cc(F)c(N2C[C@](C)(c3cccc(Cl)c3F)c3c(cnc(NC4CN(C(=O)N5C[C@@H]6C[C@H]5CO6)C4)c3F)C2=O)n1` [Example 21, (4R)-4-(3-chloro-2-fluorophenyl)-5-fluoro-2-(4-fluoro-1-methyl-1H-pyrazol-3-yl)-4-methyl-6-({1-[(1S,4S)-2-oxa-5-azabicyclo[2.2.1]heptane-5-carbonyl]azetidin-3-yl}amino)-3,4-dihydro-2,7-naphthyridin-1(2H)-one], the Emax was 142% and the EC50 amounted to 39.8 nM.
For `CC1(c2ccc(F)c(Cl)c2F)CN(c2ccc(N)cn2)C(=O)c2cnc(NC3CN(C(=O)[C@@H]4C[C@@H]4F)C3)c(F)c21` (single isomer, unassigned) [compound 102], in that order: 51.4% and 25.9 nM.
On to `C[C@]1(c2cccc(Cl)c2F)CN(c2ncccc2F)C(=O)c2cnc(NC3CN(C(N)=O)C3)c(F)c21` [Example 19, 3-{[(5R)-5-(3-Chloro-2-fluorophenyl)-4-fluoro-7-(3-fluoropyridin-2-yl)-5-methyl-8-oxo-5,6,7,8-tetrahydro-2,7-naphthyridin-3-yl]amino}azetidine-1-carboxamide], for which the Emax amounted to 31.3% and the concentration giving a half-maximal response (EC50) stood at 87.2 nM.
For `CCN(C)C(=O)CN1CC(Nc2ncc3c(c2F)[C@@](C)(c2cccc(Cl)c2F)CN(c2nn(C)cc2F)C3=O)C1` [compound 66, 2-(3-{[(5R)-5-(3-chloro-2-fluorophenyl)-4-fluoro-7-(4-fluoro-1-methyl-1H-pyrazol-3-yl)-5-methyl-8-oxo-5,6,7,8-tetrahydro-2,7-naphthyridin-3-yl]amino}azetidin-1-yl)-N-ethyl-N-methylacetamide], in that order: 88.8% and 29.8 nM.
For `COC[C@H](C)NC(=O)N1CC(Nc2ncc3c(n2)C(C)(c2cccc(Cl)c2F)CN(c2ncccc2F)C3=O)C1` (single isomer, unassigned) [compound 85], in that order: 141% and 162 nM.
As to `Cn1cc(F)c(N2C[C@](C)(c3cccc(Cl)c3F)c3c(cnc(NC4CN(C(=O)C(O)CC(F)(F)F)C4)c3F)C2=O)n1` (single isomer, unassigned) [compound 44], the EC50 was determined as 78.1 nM and the “Assay GMean Asy. Max (%)” value worked out at 77.9%.
For `Cn1cc(F)c(N2C[C@](C)(c3cccc(Cl)c3F)c3c(cnc(NC4CN(C(=O)C(C)(O)C5CC5)C4)c3F)C2=O)n1` (single isomer, unassigned) [Example 9], in that order: more than 55.7 nM and 118.8%.
As for `C[C@]1(c2cccc(Cl)c2F)CN(c2ccc([C@H]3COCCN3)cn2)C(=O)c2cnc(NC3CN(C(=O)c4cccnn4)C3)c(F)c21` (single isomer, unassigned) [Example 16], the Emax was 75.4% and the 50% effective concentration (EC50) came out at 759 nM.
As to `Cn1cc(F)c(N2C[C@](C)(c3cccc(Cl)c3F)c3c(cnc(NC4CN(C(=O)CC(C)(C)O)C4)c3F)C2=O)n1` [compound 64, (4R)-4-(3-chloro-2-fluorophenyl)-5-fluoro-2-(4-fluoro-1-methyl-1H-pyrazol-3-yl)-6-{[1-(3-hydroxy-3-methylbutanoyl)azetidin-3-yl]amino}-4-methyl-3,4-dihydro-2,7-naphthyridin-1(2H)-one], the Emax was found to be 80.4% and the EC50 is 159 nM.
As for `CC(C)NCC(=O)N1CC(Nc2ncc3c(c2F)[C@@](C)(c2cccc(Cl)c2F)CN(c2nn(C)cc2F)C3=O)C1` [Example 13, (4R)-4-(3-Chloro-2-fluorophenyl)-5-fluoro-2-(4-fluoro-1-methyl-1H-pyrazol-3-yl)-4-methyl-6-[(1-{[(propan-2-γ1)amino]acetyl}azetidin-3-γ1)amino]-3,4-dihydro-2,7-naphthyridin-1(2H)-one], the EC50 was 108 nM and the “Assay GMean Asy. Max (%)” value worked out at 46.2%.
`CC1(c2cccc(Cl)c2F)CN(c2ncccc2F)C(=O)c2cnc(NC3CN(C(=O)N4C[C@H]5C[C@@H]4[C@@H](O)C5)C3)nc21` (single isomer, unassigned) [Example 32]: the Emax was 173% and the EC50 is 219 nM.
For `CC(C)(O)C(=O)N1CC(Nc2ncc3c(c2F)[C@@](C)(c2cccc(Cl)c2F)CN(c2ccc(CO)cn2)C3=O)C1` [compound 57, (4R)-4-(3-chloro-2-fluorophenyl)-5-fluoro-6-{[1-(2-hydroxy-2-methylpropanoyl)azetidin-3-yl]amino}-2-[5-(hydroxymethyl)pyridin-2-yl]-4-methyl-3,4-dihydro-2,7-naphthyridin-1(2H)-one], in that order: 84.9% and 75 nM.
For `Cn1cc(F)c(N2C[C@](C)(c3cccc(Cl)c3F)c3c(cnc(NC4CN(C(=O)[C@@H]5C[C@@H]5F)C4)c3F)C2=O)n1` [Example 2, (4R)-4-(3-chloro-2-fluorophenyl)-5-fluoro-6-({1-[(1S,2S)-2-fluorocyclopropane-1-carbonyl]azetidin-3-yl}amino)-2-(4-fluoro-1-methyl-1H-pyrazol-3-yl)-4-methyl-3,4-dihydro-2,7-naphthyridin-1(2H)-one], in that order: 81.7% and 29.9 nM.
For `CN1CCC(N2CC(Nc3ncc4c(c3F)[C@@](C)(c3cccc(Cl)c3F)CN(c3nn(C)cc3F)C4=O)C2)C1=O` (single isomer, unassigned) [compound 69], in that order: 81.6% and 29.2 nM.
Turning to `CC1(c2cccc(Cl)c2F)CN(c2ncccc2F)C(=O)c2cnc(NC3CN(C(=O)N4CC5CC4C5)C3)nc21` (stereo not drawn) [compound 89, 2-{[1-(2-azabicyclo[2.1.1]hexane-2-carbonyl)azetidin-3-yl]amino}-8-(3-chloro-2-fluorophenyl)-6-(3-fluoropyridin-2-yl)-8-methyl-7,8-dihydropyrido[4,3-d]pyrimidin-5(6H)-one,from P13 (ENANT-2)], the Emax was determined as 148% and the EC50 is 152 nM.
For `Cn1cnc(N2C[C@](C)(c3cccc(Cl)c3F)c3c(cnc(NC4CN(C(=O)C5CC5C(F)(F)F)C4)c3F)C2=O)c1` (single isomer, unassigned) [compound 98], the EC50 was determined as 114 nM and the “Assay GMean Asy. Max (%)” value is on record as 66.2%.
In the case of `C[C@]1(c2cccc(Cl)c2F)CN(c2n[nH]cc2F)C(=O)c2cnc(NC3CN(C(=O)[C@@H]4C[C@@H]4F)C3)c(F)c21` [Example 112, (4R)-4-(3-chloro-2-fluorophenyl)-5-fluoro-6-({1-[(1S,2S)-2-fluorocyclopropane-1-carbonyl]azetidin-3-yl}amino)-2-(4-fluoro-1H-pyrazol-3-yl)-4-methyl-3,4-dihydro-2,7-naphthyridin-1(2H)-one], the Emax was found to be 72.1% and the EC50 was 899 nM.
Consider `CN1CCCC(N2CC(Nc3ncc4c(c3F)[C@@](C)(c3cccc(Cl)c3F)CN(c3nn(C)cc3F)C4=O)C2)C1=O` (single isomer, unassigned) [compound 71], for which the Emax is 139% and the concentration giving a half-maximal response (EC50) was 19.8 nM.
With `C[C@]1(c2cccc(Cl)c2F)CN(c2ncccc2F)C(=O)c2cnc(NC3CN(C(=O)[C@@H]4C[C@@H]4F)C3)c(F)c21` [Example 6, (4R)-4-(3-chloro-2-fluorophenyl)-5-fluoro-6-({1-[(1S,2S)-2-fluorocyclopropane-1-carbonyl]azetidin-3-yl}amino)-2-(3-fluoropyridin-2-yl)-4-methyl-3,4-dihydro-2,7-naphthyridin-1(2H)-one], the Emax stood at 58% and the EC50 worked out at 22.2 nM.
For `CC1(c2cccc(Cl)c2F)CN(c2ccc(CO)cn2)C(=O)c2ccc(NC3CN(C(=O)N4C[C@@H]5C[C@H]4CO5)C3)c(F)c21` (single isomer, unassigned) [Example 37], in that order: 163% and 19.1 nM.
